{"source": "paper PMC7994753", "about": "“The Availability of the α7-Nicotinic Acetylcholine Receptor in Early Identification of Vulnerable Atherosclerotic Plaques: A Study Using a Novel ^18F-Label Radioligand PET” (Frontiers in Bioengineering and Biotechnology, 2021)", "key": {"α4β2nAChR": {"molecular_target": "T1, α4β2nAChR (Mus musculus, UniProt O70174+Q9ERK7)", "T1 construct": "from tissue; host or cells: brain of living CD-1 mice", "T1 sequence (O70174 31-629)": "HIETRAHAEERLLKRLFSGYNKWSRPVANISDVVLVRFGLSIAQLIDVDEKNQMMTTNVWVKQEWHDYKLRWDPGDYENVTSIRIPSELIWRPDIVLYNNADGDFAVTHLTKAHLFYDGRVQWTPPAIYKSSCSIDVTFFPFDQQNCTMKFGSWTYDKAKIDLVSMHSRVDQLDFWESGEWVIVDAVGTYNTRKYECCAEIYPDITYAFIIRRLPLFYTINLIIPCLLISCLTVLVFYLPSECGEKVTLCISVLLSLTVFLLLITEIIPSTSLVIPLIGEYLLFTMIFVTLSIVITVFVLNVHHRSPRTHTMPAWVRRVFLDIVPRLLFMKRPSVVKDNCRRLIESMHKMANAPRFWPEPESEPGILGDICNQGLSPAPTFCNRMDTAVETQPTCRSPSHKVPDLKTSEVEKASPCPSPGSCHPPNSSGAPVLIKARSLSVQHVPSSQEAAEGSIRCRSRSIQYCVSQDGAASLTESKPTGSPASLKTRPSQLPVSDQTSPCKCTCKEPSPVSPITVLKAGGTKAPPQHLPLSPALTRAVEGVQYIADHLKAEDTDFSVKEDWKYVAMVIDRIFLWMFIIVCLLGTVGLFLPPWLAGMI", "T1 sequence (Q9ERK7 26-501)": "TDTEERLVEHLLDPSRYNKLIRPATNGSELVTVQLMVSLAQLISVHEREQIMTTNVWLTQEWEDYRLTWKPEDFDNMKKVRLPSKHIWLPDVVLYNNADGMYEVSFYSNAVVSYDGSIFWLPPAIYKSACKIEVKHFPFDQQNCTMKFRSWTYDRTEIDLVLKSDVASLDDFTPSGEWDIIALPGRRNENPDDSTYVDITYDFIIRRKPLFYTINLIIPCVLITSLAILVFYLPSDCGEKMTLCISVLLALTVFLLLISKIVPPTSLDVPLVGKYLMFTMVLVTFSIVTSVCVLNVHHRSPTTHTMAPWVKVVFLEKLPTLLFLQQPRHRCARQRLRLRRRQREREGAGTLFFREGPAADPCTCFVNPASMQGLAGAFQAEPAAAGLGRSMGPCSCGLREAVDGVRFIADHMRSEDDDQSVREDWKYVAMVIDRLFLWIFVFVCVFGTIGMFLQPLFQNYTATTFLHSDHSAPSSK", "assay": "Blocking experiment with cytisine pre-injection, brain uptake", "type": "in vivo", "details": "cytisine 1 mg/kg pre-injected 5 min before tracer; CD-1 mice brain, 60 min after injection", "protocol": "(§1) To further determine the specific binding of [^18F]YLF-DW to α7nAChR over other similar receptors, blocking experiments were carried out by pre-subcutaneous injection of blocking agents. α4β2nAChR, a heteromeric nAChR subtype widely expressed and 5-HT3, a receptor sharing high sequence homology with α7nAChR, were the most likely receptors to cross binding with α7nAChR ligands. We used the brain tissues of CD-1 mice to do the blocking experiment. Cytisine (1 mg/kg, a selective partial agonist of α4β2nAChR) and ondansetron (2 mg/kg, a selective antagonist of 5-HT3) were pre-injected 5 and 10 min prior to the intravenous injection of [^18F]YLF-DW, respectively. The CD-1 mice were sacrificed at 60 min after the [^18F]YLF-DW injection, and the brain tissues were harvested."}, "5-HT3": {"molecular_target": "T2, 5-HT3 (Mus musculus, UniProt P23979)", "T2 construct": "from tissue; host or cells: brain of living CD-1 mice", "T2 sequence (P23979 24-489)": "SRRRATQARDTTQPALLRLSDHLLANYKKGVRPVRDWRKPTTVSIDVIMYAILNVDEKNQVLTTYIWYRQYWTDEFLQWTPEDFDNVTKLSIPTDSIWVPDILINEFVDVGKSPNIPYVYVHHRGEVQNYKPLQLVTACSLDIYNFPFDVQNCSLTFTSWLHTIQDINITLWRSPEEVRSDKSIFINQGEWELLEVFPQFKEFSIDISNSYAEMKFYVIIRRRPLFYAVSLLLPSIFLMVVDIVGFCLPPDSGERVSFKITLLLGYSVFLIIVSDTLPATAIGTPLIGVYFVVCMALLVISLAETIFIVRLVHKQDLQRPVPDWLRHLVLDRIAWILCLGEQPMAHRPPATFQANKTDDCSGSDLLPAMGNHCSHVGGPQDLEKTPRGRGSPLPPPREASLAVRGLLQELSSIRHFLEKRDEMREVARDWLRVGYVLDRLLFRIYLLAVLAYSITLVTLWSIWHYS", "assay": "Blocking experiment with ondansetron pre-injection, brain uptake", "type": "in vivo", "details": "ondansetron 2 mg/kg pre-injected 10 min before tracer; CD-1 mice brain, 60 min after injection", "protocol": "as §1"}, "[1]": {"molecular_target": "T3, α7nAChR in atherosclerotic plaques (Mus musculus, UniProt P49582)", "T3 construct": "superimposed on the high uptake region in carotid arteries of ApoE-/-mice; from tissue; host or cells: carotid arteries / atherosclerotic plaques of living ApoE-/- mice and normal mice", "T3 sequence (P49582 23-502)": "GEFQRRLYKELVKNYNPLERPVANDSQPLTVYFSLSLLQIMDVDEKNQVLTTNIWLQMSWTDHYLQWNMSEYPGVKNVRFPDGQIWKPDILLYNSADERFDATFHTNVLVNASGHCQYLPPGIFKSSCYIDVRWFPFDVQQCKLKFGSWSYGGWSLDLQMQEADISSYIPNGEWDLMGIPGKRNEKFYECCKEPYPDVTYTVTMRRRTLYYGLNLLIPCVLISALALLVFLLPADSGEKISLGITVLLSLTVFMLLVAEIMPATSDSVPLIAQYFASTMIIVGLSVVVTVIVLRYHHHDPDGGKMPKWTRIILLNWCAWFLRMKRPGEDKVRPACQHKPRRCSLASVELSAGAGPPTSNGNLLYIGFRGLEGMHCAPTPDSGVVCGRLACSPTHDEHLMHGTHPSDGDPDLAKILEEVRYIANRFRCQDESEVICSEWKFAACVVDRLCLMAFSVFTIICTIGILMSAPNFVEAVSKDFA", "assay": "Micro-PET/CT imaging of carotid atherosclerotic plaques", "type": "in vivo, ApoE-/-mice and normal mice", "description": "ApoE-/-mice (n = 6, weight 25–33 g) and normal mice (n = 6, weight 25–33g) were purchased from Qingzilan Technology Co., Ltd (Nanjing, China). After 1 week of feeding with common feed, the selected ApoE-/-mice were fed with western diet, containing 21% fat and 0.15% cholesterol content, with a high-fat/high-cholesterol content for 9–10 weeks and subjected to micro-PET/CT imaging. The tissues were used for red staining and immunohistochemistry experiments. The normal mice served as controls for micro-PET/CT imaging and their tissues for immunohistochemistry. All mice were kept in a temperature-controlled environment with a 12 h light/dark cycle with free access to food and water. Animal care and experimental procedures were conducted in compliance with the Helsinki Declaration and approved by Fuwai hospital animal care committee.\nWhen the animal models were 10 and 11 weeks old, the micro-PET/CT imaging were conducted. An Inveon small animal PET/CT scanner (Siemens,Germany) was used to perform the scans. A total volume of 5.56 MBq (150 μCi) of [^18F]YLF-DW was injected into six ApoE-/-mice and six normal mice by the tail veins, and the animal models were anesthetized with 2% isoflurane through inhalation. We performed PET/CT dynamic scanning. After screening, the acquisition was performed at 1 h after tail vein injections. The micro-PET/CT was initially performed with the following parameters: energy peak, 511 keV; window width, 3.5 E0 SUV-bw; resolution, 0.775 mm/pixel; and matrix, 128 × 128. Each mouse required a 15-min acquisition and the computed tomography (CT) was performed after PET scanning in the same bed position using the following parameters: frame resolution, 256 × 512; tube voltage, 80 kVp; current, 0.5 mA; and exposure time, 500 ms/frame.\nThe images were reconstructed by two-dimensional-ordered subsets expectation maximization. The three-dimensional regions of interest (ROIs) were superimposed on the high uptake region in carotid arteries of ApoE-/-mice. The tissue density was presumed as 1 g/ml, and % ID/g was calculated based on the dose injected into the mice."}, "α7nAChR": {"molecular_target": "α7nAChR", "set-up": "method as in Wang S. et al., 2018", "details": "previous experiment, ref Wang S. et al., 2018; cited from earlier work"}, "[2]": {"set-up": "method as in Wang S. et al., 2018", "details": "ref Wang S. et al., 2018, cited from earlier work"}}, "data": [{"smiles": "O=C1c2cc(N3CCN4CCC3CC4)ccc2-c2cccc([18F])c21", "note": "[[^18F]YLF-DW]", "values": [{"measurement": "difference in radioligand uptake, blocked group vs control group", "setting": "α4β2nAChR", "result": "no significant difference"}, {"measurement": "difference in radioligand uptake, blocked group vs control group", "setting": "5-HT3", "result": "no significant difference"}, {"measurement": "carotid artery plaque imaging signal", "setting": "[1]; ApoE-/-mouse, 5.56 MBq i.v., acquisition 1 h after injection", "result": "obvious in the carotid artery"}, {"measurement": "early detection of carotid plaques compared with traditional imaging agent", "setting": "[1]; ApoE-/-mouse, comparison with [^18F]FDG", "result": "better than [^18F]FDG"}, {"measurement": "carotid artery imaging signal", "setting": "[1]; normal control mice, 5.56 MBq i.v., acquisition 1 h after injection", "result": "no signal was observed"}, {"measurement": "Ki", "setting": "α7nAChR", "result": "2.98 ± 1.41", "unit": "nM"}, {"measurement": "initial brain uptake", "setting": "[2]; 15 min post-injection, Kunming mouse", "result": "11.60 ± 0.14", "unit": "%ID/g"}, {"measurement": "brain/blood value", "setting": "[2]; 30 min post-injection, Kunming mouse", "result": 9.57}, {"measurement": "clearance from brain", "setting": "[2]; Kunming mouse brains", "result": "fast clearance"}]}]}
